Patent US7410970B2, “Substituted 1,4,-di-piperidin-4-yl-piperazine derivatives and their use as neurokinin antagonists” (Janssen Pharmaceutica, N.V., priority 2002, dated 2008)

Key:
[1] = biological target: T1, h-NK1 receptor (Homo sapiens, UniProt P25103); assay: Binding experiment for h-NK1 receptor: displacement of [3H]-Substance P, CHO cells; details: cloned human h-NK1 receptors expressed in CHO cells, read-out: h-NK1 pIC50 (converted)
T1 construct: expressed in transfected cells; host or cells: CHO cells
T1 sequence (P25103 whole entry): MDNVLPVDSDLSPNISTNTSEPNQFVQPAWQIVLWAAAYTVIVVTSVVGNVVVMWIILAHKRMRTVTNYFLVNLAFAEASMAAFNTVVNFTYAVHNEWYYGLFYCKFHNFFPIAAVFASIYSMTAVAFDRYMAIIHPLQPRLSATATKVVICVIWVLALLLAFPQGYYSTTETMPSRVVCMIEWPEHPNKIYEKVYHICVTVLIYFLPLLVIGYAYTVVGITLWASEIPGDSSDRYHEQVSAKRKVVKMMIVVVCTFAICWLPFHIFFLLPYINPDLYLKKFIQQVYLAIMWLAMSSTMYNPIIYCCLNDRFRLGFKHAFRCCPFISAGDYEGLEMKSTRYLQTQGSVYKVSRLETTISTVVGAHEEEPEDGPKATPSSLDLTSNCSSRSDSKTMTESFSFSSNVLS
Description: (§1) The compounds according to the invention were investigated for interaction with various neurotransmitter receptors, ion channels and transporter binding sites using the radioligand binding technique. Membranes from tissue homogenates or from cells, expressing the receptor or transporter of interests, were incubated with a radioactively labelled substance ([^3H]- or [^125I] ligand) to label a particular receptor. […] Following incubation, labelled membranes were harvested and rinsed with excessive cold buffer to remove non-bound radioactivity by rapid filtration under suction. Membrane bound radioactivity was counted in a scintillation counter and results were expressed in counts per minute (cpm). The compounds were dissolved in DMSO and tested at 10 concentrations ranging from 10^−10 to 10^−5 M. The ability of the compounds according to the invention to displace [^3H]-Substance P from cloned human h-NK1 receptors expressed in CHO cells, to displace [^3H]-SR-48968 from cloned human h-NK2 receptors expressed in Sf9 cells, and to displace [^3H]-SR-142801 from cloned human h-NK3 receptors expressed in CHO cells was evaluated.

[2] = biological target: T2, h-NK2 receptor (Homo sapiens, UniProt P21452); assay: Binding experiment for h-NK2 receptor: displacement of [3H]-SR-48968, Sf9 cells; details: cloned human h-NK2 receptors expressed in Sf9 cells, read-out: h-NK2 pIC50 (converted)
T2 construct: expressed in transfected cells; host or cells: Sf9 cells
T2 sequence (P21452 1-398): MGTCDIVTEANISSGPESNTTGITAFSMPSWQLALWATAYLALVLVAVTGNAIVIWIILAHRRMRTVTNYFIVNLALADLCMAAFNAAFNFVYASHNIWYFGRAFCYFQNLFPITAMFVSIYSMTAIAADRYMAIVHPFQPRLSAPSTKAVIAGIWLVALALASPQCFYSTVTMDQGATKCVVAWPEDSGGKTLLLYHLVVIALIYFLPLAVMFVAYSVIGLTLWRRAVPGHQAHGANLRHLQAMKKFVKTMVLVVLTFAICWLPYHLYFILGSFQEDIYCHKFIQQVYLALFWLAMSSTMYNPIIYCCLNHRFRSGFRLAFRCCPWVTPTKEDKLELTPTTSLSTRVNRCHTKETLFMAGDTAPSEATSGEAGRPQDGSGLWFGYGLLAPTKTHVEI
Description: as §1

[3] = biological target: T3, h-NK3 receptor (Homo sapiens, UniProt P29371); assay: Binding experiment for h-NK3 receptor: displacement of [3H]-SR-142801, CHO cells; details: cloned human h-NK3 receptors expressed in CHO cells, read-out: h-NK3 pIC50 (converted)
T3 construct: expressed in transfected cells; host or cells: CHO cells
T3 sequence (P29371 1-465): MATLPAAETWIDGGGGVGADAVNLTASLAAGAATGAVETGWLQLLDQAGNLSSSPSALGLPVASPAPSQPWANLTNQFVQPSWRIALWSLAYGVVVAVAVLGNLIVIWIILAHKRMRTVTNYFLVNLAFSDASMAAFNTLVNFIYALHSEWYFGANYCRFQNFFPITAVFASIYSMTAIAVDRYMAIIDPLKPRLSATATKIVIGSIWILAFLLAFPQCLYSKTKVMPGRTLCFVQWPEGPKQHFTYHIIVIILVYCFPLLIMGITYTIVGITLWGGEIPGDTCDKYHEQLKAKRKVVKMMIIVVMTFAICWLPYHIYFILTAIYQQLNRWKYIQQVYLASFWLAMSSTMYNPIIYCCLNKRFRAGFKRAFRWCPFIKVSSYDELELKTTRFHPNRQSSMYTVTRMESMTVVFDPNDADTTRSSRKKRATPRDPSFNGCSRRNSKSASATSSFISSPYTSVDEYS
Description: as §1

melting point [°C]	IC50 [1] [nM]	IC50 [2] [nM]	IC50 [3] [nM]	SMILES
135				O=C(c1cc(C(F)(F)F)cc(C(F)(F)F)c1)N1CCC(N2CCN(C3CCN(Cc4nc5ccccc5[nH]4)CC3)CC2)CC1Cc1ccccc1 (stereo not shown) [Compound 7]
	7.94	398	398	COc1cc(N)c(Cl)cc1C(=O)N1CCC(N2CCN([C@H]3CCN(C(=O)c4cc(C(F)(F)F)cc(C(F)(F)F)c4)[C@H](Cc4ccccc4)C3)CC2)CC1 [Compound 64]
